Literature values, collected in patent US8642581B1, “Compositions and methods for the production of S-adenosylmethionine within the body” (priority 2000, dated 2014).

Columns and labels:
[1] = tested on: beta-adrenergic binding sites; details: rats, chronic administration
[2] = tested on: brain membrane; details: rats, chronic administration
[3] = 35° C. (95° F.)
[4] = tested on: Depressive symptoms; details: 195 patients, 400 mg SAMe parenterally for 15 days

C[S+](CC[C@H](N)C(=O)O)C[C@H]1O[C@@H](n2cnc3c(N)ncnc32)[C@H](O)[C@@H]1O (some centres unmarked) [SAMe, S-adenosylmethionine]
age-related decrease in beta-adrenergic binding sites [1]: prevents | age-related decrease of brain membrane fluidity [2]: prevents | time SAMe remains stable [3]: 8 to 10 h | serious adverse events [4]: no serious adverse events were reported | Depressive symptoms ([4]; after 7 and 15 days): remitted after both 7 and 15 days
